{"source": "paper PMC3154276", "about": "“The Effect of the Potential PhoQ Histidine Kinase Inhibitors on Shigella flexneri Virulence” (PLoS ONE, 2011)", "key": {"S. flexneri Sf9380": {"test_system": "S. flexneri Sf9380", "test": "Gentamicin protection assay, intracellular growth and spreading to adjacent cell of Sf9380", "assay_type": "cell-based", "conditions": "for intracellular growth and spreading to adjacent cell of Sf9380 (bacteria recovered / inoculated): further incubated 290 min, untreated Sf9380 0.12", "experimental": "The growth curve of Sf9380 treated with or without potential PhoQ inhibitors at concentration 200 µmol/L were tested. […] The gentamicin protection assay was used as a cellular model to evaluate the inhibitory effect of the four potential PhoQ inhibitors. The bacteria were treated with each of the four potential PhoQ inhibitors in a serial dilution and grown for 8 hours. Next, the bacteria were inoculated and incubated with HeLa cells for 60 min prior to the addition of gentamicin to kill extracellular bacteria. For testing intracellular growth and spreading to adjacent cell, cells were further incubated for 290 min [9]. The results of the assays were expressed as the number of bacteria recovered from gentamicin-treated cells divided by the number of inoculated bacteria added to the cell. After lysates of HeLa cells were plated, the number of CFU that formed on LB agar were counted.\nFigure 6 The effects of potential PhoQ inhibitors on virulence of Shigella. […] The bacteria pre-treated with potential PhoQ inhibitor were added to HeLa cells at a multiplicity of infection of 100. Then gentamicin was added to kill extracellular bacteria and cell lysates were plated onto LB plates, and the colonies were counted. The results of the assays were expressed as the number of bacteria recovered from gentamicin-treated cells divided by the number of inoculated bacteria added to the cell. S. flexneri Sf9380 (treated without DMSO), a clinical strain with strong virulence, served as the positive control for the cell invasion assay; E. coli ATCC 25922 (treated without DMSO), an avirulent strain, served as the negative control for the cell invasion assay; bacteria treated with 0.1% DMSO (the solvent of the potential PhoQ inhibitor) also served as a control for the cell invasion assay. Values are means ± standard deviations from 6 independent wells. *p<0.01 vs. Sf9380. (A) The effects of potential PhoQ inhibitors on cell invasion of S. flexneri Sf9380 (B) The effects of potential PhoQ inhibitors on intracellular growth S. flexneri Sf9380. (C) The effects of potential PhoQ inhibitors on cell invasion of S. flexneri 2a 301 phoQ/phoP knock-out mutant.\nBacterial ability to invade HeLa cells was tested with a gentamicin protection assay. HeLa cells were grown in six-well tissue culture plates to semi-confluent monolayers (DMEM, 10% FCS, 5% CO2). Sf9380 or Sf301 ΔphoQ/phoP was treated with potential PhoQ inhibitors for 8 hours in LB at 37°C (final concentrations of 100,50,25,12.5 or 6.25 µmol/L) prior to infection. The bacteria pre-treated with potential PhoQ inhibitor without washing, were added to semi-confluent HeLa cells at a multiplicity of infection of 100, at the same time the bacteria were diluted and plated onto LB agar plates. The CFUs were counted as initial bacterial number before added into HeLa cells. Then the plates were centrifuged at 900×g for 5 minutes. After incubating at 37°C for 60 minutes (For testing intracellular growth and spreading to adjacent cell, cells were further incubated for 290 min [9].), the cells were washed three times with PBS, and gentamicin was added to the medium to a final concentration of 10 µg/ml for 20 minutes at 37°C. After the incubation, the HeLa cells in each well were lysed in 1 ml of PBS containing 0.1% Triton X-100 for 10 minutes at room temperature. The lysates were diluted and plated onto LB agar plates in triplicate. Colonies grown on LB plates were counted. The results of the assays were expressed as the number of bacteria recovered from gentamicin-treated cells divided by the number of inoculated bacteria added to the cell. The cells were inoculated with untreated Sf9380 or Sf301 ΔphoQ/phoP (treated without DMSO) as a positive control and E. coli ATCC 25922, an avirulent strain treated without DMSO, as a negative control. […]"}, "[1]": {"test_system": "S. flexneri 2a 301 phoQ/phoP knock-out mutant (Sf301 ΔphoQ/phoP)", "test": "Gentamicin protection assay, HeLa cell invasion by phoQ/phoP knock-out mutant", "assay_type": "cell-based", "conditions": "HeLa cells; for cell invasion rate of Sf301 ΔphoQ/phoP: untreated mutant 0.069; for effect on cell invasion of Sf301 phoQ/phoP knock-out mutant: Figure 6C", "experimental": "Bacterial ability to invade HeLa cells was tested with a gentamicin protection assay. HeLa cells were grown in six-well tissue culture plates to semi-confluent monolayers (DMEM, 10% FCS, 5% CO2). Sf9380 or Sf301 ΔphoQ/phoP was treated with potential PhoQ inhibitors for 8 hours in LB at 37°C (final concentrations of 100,50,25,12.5 or 6.25 µmol/L) prior to infection. The bacteria pre-treated with potential PhoQ inhibitor without washing, were added to semi-confluent HeLa cells at a multiplicity of infection of 100, at the same time the bacteria were diluted and plated onto LB agar plates. The CFUs were counted as initial bacterial number before added into HeLa cells. Then the plates were centrifuged at 900×g for 5 minutes. After incubating at 37°C for 60 minutes (For testing intracellular growth and spreading to adjacent cell, cells were further incubated for 290 min [9].), the cells were washed three times with PBS, and gentamicin was added to the medium to a final concentration of 10 µg/ml for 20 minutes at 37°C. After the incubation, the HeLa cells in each well were lysed in 1 ml of PBS containing 0.1% Triton X-100 for 10 minutes at room temperature. The lysates were diluted and plated onto LB agar plates in triplicate. Colonies grown on LB plates were counted. The results of the assays were expressed as the number of bacteria recovered from gentamicin-treated cells divided by the number of inoculated bacteria added to the cell. The cells were inoculated with untreated Sf9380 or Sf301 ΔphoQ/phoP (treated without DMSO) as a positive control and E. coli ATCC 25922, an avirulent strain treated without DMSO, as a negative control. DMSO is the solvent of the potential PhoQ inhibitor compounds; therefore, Sf9380 was also treated with the same amount of 0.1% DMSO as the other groups to control for any DMSO-specific effects. The cell invasion assay was performed in triplicate for each potential PhoQ inhibitor, and the assay was repeated twice."}}}
{"smiles": "O=C(Nc1ccc(C2(c3cccc(NC(=O)c4cccc5ccccc45)c3)c3ccccc3C(=O)c3ccccc32)cc1)c1ccc2ccccc2c1", "note": "[Compound 1]", "values": [{"measurement": "times lower than untreated Sf9380, intracellular growth", "setting": "S. flexneri Sf9380; 12.5 µmo/L", "value": 1.96, "unit": "times"}, {"measurement": "intracellular growth and spreading to adjacent cell of Sf9380 (bacteria recovered / inoculated)", "setting": "S. flexneri Sf9380; 12.5 µmo/L", "value": 0.061}, {"measurement": "cell invasion rate of Sf301 ΔphoQ/phoP", "setting": "[1]; 12.5 µmo/L", "value": 0.064}, {"measurement": "effect on cell invasion of Sf301 phoQ/phoP knock-out mutant", "setting": "[1]", "value": "no obvious effects"}]}
{"smiles": "CCOc1ccccc1-c1cc(C(=O)N/N=C/c2ccc(OCc3ccccc3)c(OC)c2)c2ccccc2n1", "note": "[Compound 2]", "values": [{"measurement": "times lower than untreated Sf9380, intracellular growth", "setting": "S. flexneri Sf9380; 25 µmo/L", "value": 3.3, "unit": "times"}, {"measurement": "intracellular growth and spreading to adjacent cell of Sf9380 (bacteria recovered / inoculated)", "setting": "S. flexneri Sf9380; 25 µmo/L", "value": 0.036}, {"measurement": "cell invasion rate of Sf301 ΔphoQ/phoP", "setting": "[1]; 25 µmo/L", "value": 0.102}, {"measurement": "effect on cell invasion of Sf301 phoQ/phoP knock-out mutant", "setting": "[1]", "value": "no obvious effects"}]}
{"smiles": "O=C(O)c1ccc(Cl)c(-c2ccc(/C=N/NC(=O)c3ccc(Br)cc3)o2)c1", "note": "[Compound 3]", "values": [{"measurement": "times lower than untreated Sf9380, intracellular growth", "setting": "S. flexneri Sf9380; 100 µmo/L", "value": 2.6, "unit": "times"}, {"measurement": "intracellular growth and spreading to adjacent cell of Sf9380 (bacteria recovered / inoculated)", "setting": "S. flexneri Sf9380; 100 µmo/L", "value": 0.046}, {"measurement": "cell invasion rate of Sf301 ΔphoQ/phoP", "setting": "[1]; 100 µmo/L", "value": 0.083}, {"measurement": "effect on cell invasion of Sf301 phoQ/phoP knock-out mutant", "setting": "[1]", "value": "no obvious effects"}]}
{"smiles": "O=C(O)c1cc(-c2ccc(-c3ccccc3Cl)o2)nc2ccc3ccccc3c12", "note": "[Compound 4]", "values": [{"measurement": "effect on cell intracellular growth of Sf9380", "setting": "S. flexneri Sf9380; 100 µmo/L", "value": "no obvious effect"}, {"measurement": "intracellular growth and spreading to adjacent cell of Sf9380 (bacteria recovered / inoculated)", "setting": "S. flexneri Sf9380; 100 µmo/L", "value": 0.12}, {"measurement": "cell invasion rate of Sf301 ΔphoQ/phoP", "setting": "[1]; 100 µmo/L", "value": 0.053}]}
